The values below come from US20240116988A1, “ANTI-ROR1 MACROCYCLIC PEPTIDES AND COMPOSITIONS” (BRISTOL-MYERS SQUIBB COMPANY, priority 2022, published 2024).

This assay deals with T1, human ROR1 (Homo sapiens, UniProt Q01973).
T1 construct: host or cells: HEK 293T cells, Tet-on system induced with doxycycline
Put plainly: ROR1 high content cell-based binding assay. The note with it: read-out: ROR1 Binding 293T Human HC Cell Based Assay IC50. Summed up: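 Doxycycline-induced 293T cells expressing human ROR1, seeded overnight, were treated with compound plus 5-FAM-labeled ROR1-binding probe peptide (30 nM final) for 1 h at 37 °C. After washing and formaldehyde/Hoechst fixation, cell-bound probe fluorescence was read by high-content imaging.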

Positions of bridges follow the written chain, without caps; N, C: chain ends. Non-standard residues stand in square brackets, D forms with d. Residues, ends and D or L forms follow the SMILES beside them. ξ: configuration not given here. NMeF = CN[C@@H](Cc1ccccc1)C(=O)O; AEEA = NCCOCCOCC(=O)O; ξC = NC(CS)C(=O)O

T1 sequence (Q01973 30-937): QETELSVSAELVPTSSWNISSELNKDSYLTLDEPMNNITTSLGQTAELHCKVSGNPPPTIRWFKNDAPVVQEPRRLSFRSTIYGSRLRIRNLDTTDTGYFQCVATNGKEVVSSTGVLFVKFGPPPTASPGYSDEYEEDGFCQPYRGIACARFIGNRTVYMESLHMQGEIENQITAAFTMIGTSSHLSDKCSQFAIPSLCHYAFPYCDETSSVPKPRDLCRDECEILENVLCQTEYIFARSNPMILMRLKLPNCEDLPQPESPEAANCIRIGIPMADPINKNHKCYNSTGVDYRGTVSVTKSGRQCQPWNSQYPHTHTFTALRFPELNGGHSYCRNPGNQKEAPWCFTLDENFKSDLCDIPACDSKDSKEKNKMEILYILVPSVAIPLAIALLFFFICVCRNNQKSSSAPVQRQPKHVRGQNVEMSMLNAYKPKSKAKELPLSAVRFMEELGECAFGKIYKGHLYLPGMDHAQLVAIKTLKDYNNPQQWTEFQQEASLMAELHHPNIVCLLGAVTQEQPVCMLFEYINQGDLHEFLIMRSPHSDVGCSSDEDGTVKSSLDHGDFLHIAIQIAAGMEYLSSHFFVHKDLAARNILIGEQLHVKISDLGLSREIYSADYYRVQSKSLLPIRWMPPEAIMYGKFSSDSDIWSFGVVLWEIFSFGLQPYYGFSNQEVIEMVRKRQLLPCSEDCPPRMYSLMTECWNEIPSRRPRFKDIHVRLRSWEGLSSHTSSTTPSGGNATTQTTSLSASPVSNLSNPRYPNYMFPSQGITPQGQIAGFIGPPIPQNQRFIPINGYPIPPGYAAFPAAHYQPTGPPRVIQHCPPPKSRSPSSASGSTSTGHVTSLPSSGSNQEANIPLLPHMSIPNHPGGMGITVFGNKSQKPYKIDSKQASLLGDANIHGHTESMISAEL

As for `CC(C)C[C@@H]1NC(=O)[C@H](Cc2ccc(O)cc2)NC(=O)[C@H](Cc2c[nH]c3ccccc23)NC(=O)CSC[C@@H](C(=O)NCC(N)=O)NC(=O)[C@H](CC(C)C)NC(=O)[C@H](Cc2ccccc2)N(C)C(=O)[C@H](Cc2ccc(O)cc2)NC(=O)[C@H](Cc2c[nH]c3ccccc23)NC(=O)CNC(=O)[C@H](CO)NC(=O)[C@H](Cc2ccc(O)cc2)NC(=O)[C@H](C(C)C)NC1=O` [Example 1077] ({CH2CO}-WYLVYSGWY[NMeF]LCG-NH2; thioether N-12), the IC50 was found to be 2 nM.
Take `CC(C)C[C@@H]1NC(=O)[C@H](Cc2ccc(O)cc2)NC(=O)[C@H](Cc2ccccc2)NC(=O)CSC[C@@H](C(=O)NCC(N)=O)NC(=O)[C@H](CC(C)C)NC(=O)[C@H](Cc2ccccc2)N(C)C(=O)[C@H](Cc2ccc(O)cc2)NC(=O)[C@H](Cc2c[nH]c3ccccc23)NC(=O)CNC(=O)[C@H](CO)NC(=O)CNC(=O)[C@H](C(C)C)NC1=O` [Example 1025] ({CH2CO}-FYLVGSGWY[NMeF]LCG-NH2; thioether N-12): the IC50 is 365 nM.
On to `CC(C)C[C@@H]1NC(=O)[C@H](Cc2ccccc2)NC(=O)CSC[C@@H](C(=O)NCC(N)=O)NC(=O)[C@H](CC(C)C)NC(=O)[C@H](Cc2ccccc2)N(C)C(=O)[C@H](Cc2ccc(O)cc2)NC(=O)[C@H](Cc2c[nH]c3ccccc23)NC(=O)CNC(=O)[C@H](CO)NC(=O)[C@H](Cc2ccc(O)cc2)NC(=O)[C@H](C(C)C)NC(=O)[C@H](Cc2c[nH]c3ccccc23)NC1=O` [Example 1058] ({CH2CO}-FLWVYSGWY[NMeF]LCG-NH2; thioether N-12), for which the IC50 stood at 755 nM.
In the case of `CC(C)C[C@@H]1NC(=O)[C@H](Cc2ccc(O)cc2)NC(=O)[C@H](Cc2ccccc2)NC(=O)CSC[C@@H](C(=O)NCC(N)=O)NC(=O)[C@H](CC(C)C)NC(=O)[C@H](Cc2ccccc2)N(C)C(=O)[C@H](Cc2ccc(O)cc2)NC(=O)[C@H](Cc2c[nH]c3ccccc23)NC(=O)CNC(=O)[C@H](Cc2ccccc2)NC(=O)[C@H](Cc2ccc(O)cc2)NC(=O)[C@H](C(C)C)NC1=O` [Example 1043] ({CH2CO}-FYLVYFGWY[NMeF]LCG-NH2; thioether N-12), the IC50 was found to be 38 nM.
Regarding `CC(C)C[C@@H]1NC(=O)[C@H](Cc2c[nH]c3ccccc23)NC(=O)[C@H](Cc2ccccc2)NC(=O)[C@H](Cc2c[nH]c3ccccc23)NC(=O)CNC(=O)[C@H](CO)NC(=O)[C@H](Cc2ccc(O)cc2)NC(=O)[C@H](C(C)C)NC(=O)[C@H](CCCNC(=N)N)NC(=O)[C@H](Cc2ccccc2)NC(=O)[C@H](Cc2ccccc2)NC(=O)CSC[C@@H](C(N)=O)NC1=O` [Example 1014] ({CH2CO}-FFRVYSGWFWLC-NH2; thioether N-12), the 50% inhibitory concentration (IC50) is 707 nM.
Turning to `CC(C)C[C@@H]1NC(=O)[C@H](Cc2ccc(O)cc2)NC(=O)[C@H](Cc2ccccc2)NC(=O)CSC[C@@H](C(=O)NCC(N)=O)NC(=O)[C@H](CC(C)C)NC(=O)[C@H](Cc2ccccc2)N(C)C(=O)[C@H](Cc2ccc(O)cc2)NC(=O)[C@H](Cc2c[nH]c3ccccc23)NC(=O)CNC(=O)[C@H](CO)NC(=O)[C@H](Cc2ccc(O)cc2)NC(=O)[C@H](CO)NC1=O` [Example 1069] ({CH2CO}-FYLSYSGWY[NMeF]LCG-NH2; thioether N-12), the IC50 was determined as 82 nM.
For the compound `CC(C)C[C@@H]1NC(=O)[C@H](Cc2ccc(O)cc2)NC(=O)[C@H](Cc2ccccc2)NC(=O)CSC[C@@H](C(=O)NCC(N)=O)NC(=O)[C@H](CC(C)C)NC(=O)[C@H](Cc2ccccc2)N(C)C(=O)[C@H](Cc2ccc(O)cc2)NC(=O)[C@H](Cc2c[nH]c3ccccc23)NC(=O)CNC(=O)[C@H](CC(=O)O)NC(=O)[C@H](Cc2ccc(O)cc2)NC(=O)[C@H](C(C)C)NC1=O` [Example 1017] ({CH2CO}-FYLVYDGWY[NMeF]LCG-NH2; thioether N-12), the IC50 came to 14 nM.
As for `CC(C)C[C@@H]1NC(=O)CSC[C@@H](C(=O)NCC(N)=O)NC(=O)[C@H](CC(C)C)NC(=O)[C@H](Cc2ccccc2)N(C)C(=O)[C@H](Cc2ccc(O)cc2)NC(=O)[C@H](Cc2c[nH]c3ccccc23)NC(=O)CNC(=O)[C@H](CO)NC(=O)[C@H](Cc2ccc(O)cc2)NC(=O)[C@H](C(C)C)NC(=O)[C@H](CC(C)C)NC(=O)[C@H](Cc2ccc(O)cc2)NC1=O` [Example 1072] ({CH2CO}-LYLVYSGWY[NMeF]LCG-NH2; thioether N-12), the IC50 came out at 80 nM.
With `CC(C)C[C@@H]1NC(=O)[C@H](Cc2ccc(O)cc2)NC(=O)[C@H](Cc2ccccc2)NC(=O)CSC[C@@H](C(=O)NCC(N)=O)NC(=O)[C@H](CC(C)C)NC(=O)[C@H](Cc2ccccc2)N(C)C(=O)[C@H](Cc2ccc(O)cc2)NC(=O)[C@H](Cc2c[nH]c3ccccc23)NC(=O)CNC(=O)[C@H](CO)NC(=O)[C@H](Cc2cnc[nH]2)NC(=O)[C@H](C(C)C)NC1=O` [Example 1030] ({CH2CO}-FYLVHSGWY[NMeF]LCG-NH2; thioether N-12), the half-maximal inhibitory concentration (IC50) was determined as 275 nM.
To `CC(C)C[C@@H]1NC(=O)[C@H](Cc2c[nH]cn2)NC(=O)[C@H](Cc2ccccc2)N(C)C(=O)CNC(=O)[C@H](Cc2ccc(O)cc2)NC(=O)[C@@H](Cc2ccccc2)NC(=O)CSC[C@@H](C(N)=O)NC(=O)[C@H](Cc2c[nH]c3ccccc23)NC(=O)[C@H](Cc2ccc(O)cc2)NC1=O` [Example 1117] ({CH2CO}-[dF]YG[NMeF]HLYWC-NH2; thioether N-9) belongs 69 nM.
Take `CC(C)C[C@@H]1NC(=O)[C@H](Cc2ccc(O)cc2)NC(=O)[C@H](Cc2ccccc2)N(C)C(=O)CNC(=O)[C@H](Cc2ccc(O)cc2)NC(=O)[C@H](Cc2ccccc2)NC(=O)CSC[C@@H](C(N)=O)NC(=O)[C@H](Cc2c[nH]c3ccccc23)NC(=O)[C@H](Cc2ccc(O)cc2)NC1=O` [Example 1115] ({CH2CO}-FYG[NMeF]YLYWC-NH2; thioether N-9): the IC50 turned out to be 94 nM.
Turning to `CC(C)C[C@@H]1NC(=O)[C@H](Cc2ccc(O)cc2)NC(=O)[C@H](Cc2ccccc2)NC(=O)CSC[C@@H](C(=O)NCC(N)=O)NC(=O)[C@H](CC(C)C)NC(=O)[C@H](Cc2ccccc2)N(C)C(=O)[C@H](Cc2ccc(O)cc2)NC(=O)[C@H](Cc2c[nH]c3ccccc23)NC(=O)CNC(=O)[C@H](CO)NC(=O)[C@H](CCCNC(=N)N)NC(=O)[C@H](C(C)C)NC1=O` [Example 1023] ({CH2CO}-FYLVRSGWY[NMeF]LCG-NH2; thioether N-12), the IC50 was 79 nM.
For `CC[C@H](C)[C@@H]1NC(=O)[C@H](Cc2ccccc2)NC(=O)CSC[C@@H](C(N)=O)NC(=O)[C@H](C)NC(=O)[C@H](Cc2ccc(O)cc2)NC(=O)[C@H](Cc2ccc(O)cc2)NC(=O)[C@H](Cc2c[nH]c3ccccc23)NC(=O)CNC(=O)[C@H](Cc2ccc(O)cc2)NC(=O)[C@H](CCCNC(=N)N)NC(=O)[C@H](C(C)C)NC(=O)[C@H](Cc2c[nH]c3ccccc23)NC1=O` [Example 1049] ({CH2CO}-FIWVRYGWYYAC-NH2; thioether N-12), the IC50 was 19 nM.
For `CC(C)C[C@@H]1NC(=O)[C@H](Cc2ccccc2)N(C)C(=O)[C@H](Cc2ccc(O)cc2)NC(=O)[C@H](Cc2c[nH]c3ccccc23)NC(=O)CNC(=O)[C@H](CO)NC(=O)[C@H](Cc2ccc(O)cc2)NC(=O)[C@H](C(C)C)NC(=O)[C@@H]2CCCN2C(=O)[C@H](Cc2ccc(O)cc2)NC(=O)[C@H](Cc2ccccc2)NC(=O)CSC[C@@H](C(=O)NCC(N)=O)NC1=O` [Example 1066] ({CH2CO}-FYPVYSGWY[NMeF]LCG-NH2; thioether N-12), the IC50 worked out at 5 nM.
Turning to `CC(C)C[C@@H]1NC(=O)[C@H](Cc2ccc(O)cc2)NC(=O)[C@H](Cc2ccccc2)NC(=O)CSC[C@@H](C(=O)NCC(N)=O)NC(=O)[C@H](CC(C)C)NC(=O)[C@H](Cc2ccccc2)N(C)C(=O)[C@H](Cc2ccc(O)cc2)NC(=O)[C@H](Cc2c[nH]c3ccccc23)NC(=O)CNC(=O)[C@H](Cc2c[nH]c3ccccc23)NC(=O)[C@H](CCCNC(=N)N)NC(=O)[C@H](C(C)C)NC1=O` [Example 1054] ({CH2CO}-FYLVRWGWY[NMeF]LCG-NH2; thioether N-12), the IC50 was 35 nM.
In the case of `CC(C)[C@@H]1NC(=O)[C@H](Cc2c[nH]c3ccccc23)NC(=O)[C@H](Cc2ccc(O)cc2)NC(=O)[C@H](Cc2c[nH]c3ccccc23)NC(=O)CNC(=O)[C@H](Cc2c[nH]c3ccccc23)NC(=O)[C@H](CCCNC(=N)N)NC(=O)[C@H](C(C)C)NC(=O)[C@H](Cc2ccccc2)N(C)C(=O)[C@H](CCCNC(=N)N)NC(=O)[C@H](Cc2ccccc2)NC(=O)CSC[C@@H](C(=O)NCCOCCOCC(=O)O)NC1=O` [Example 1091] ({CH2CO}-FR[NMeF]VRWGWYWVC[AEEA]-OH; thioether N-12), the IC50 amounted to 565 nM.
For the compound `CC(C)C[C@@H]1NC(=O)[C@H](Cc2c[nH]c3ccccc23)NC(=O)[C@H](Cc2ccc(O)cc2)NC(=O)[C@H](Cc2c[nH]c3ccccc23)NC(=O)CNC(=O)[C@H](CO)NC(=O)[C@H](Cc2ccc(O)cc2)NC(=O)[C@H](C(C)C)NC(=O)[C@@H]2CCCN2C(=O)[C@H](Cc2ccc(O)cc2)NC(=O)[C@H](Cc2ccccc2)NC(=O)CSC[C@@H](C(N)=O)NC1=O` [Example 1095] ({CH2CO}-FYPVYSGWYWLC-NH2; thioether N-12), the IC50 was 11 nM.
Take `CC(C)C[C@@H]1NC(=O)[C@H](CC(N)=O)NC(=O)[C@H](Cc2ccccc2)N(C)C(=O)CNC(=O)[C@H](Cc2ccc(O)cc2)NC(=O)[C@H](Cc2ccccc2)NC(=O)CSCC(C(N)=O)NC(=O)[C@H](Cc2c[nH]c3ccccc23)NC(=O)[C@H](Cc2ccccc2)NC1=O` (stereo partly shown) [Example 1104] ({CH2CO}-FYG[NMeF]NLFW[ξC]-NH2; thioether N-9): the IC50 came out at 31 nM.
Consider `CC(C)C[C@@H]1NC(=O)[C@H](CCCNC(=N)N)NC(=O)[C@H](Cc2ccccc2)NC(=O)CSC[C@@H](C(=O)NCC(N)=O)NC(=O)[C@H](CC(C)C)NC(=O)[C@H](Cc2ccccc2)N(C)C(=O)[C@H](Cc2ccc(O)cc2)NC(=O)[C@H](Cc2c[nH]c3ccccc23)NC(=O)CNC(=O)[C@H](CO)NC(=O)[C@H](Cc2ccc(O)cc2)NC(=O)[C@H](C(C)C)NC1=O` [Example 1051] ({CH2CO}-FRLVYSGWY[NMeF]LCG-NH2; thioether N-12), for which the IC50 is 172 nM.
